“Also recorded” adds a separate entry of the source. Where two headings read alike, the source gives them in different places.
Columns and labels:
Assay type in all cases: in vivo
[1] = test system: morphine analgesic tolerance, neuropathic pain rat model; conditions: for analgesic effect of morphine restored: after 5-day continuous administration
Description: (1) 15 healthy adult SD rats, weighing 180-220 g, were selected to build a CCI-induced neuropathic pain model. 6 days after the modeling, successful models were randomly divided into 3 groups, where the group A was injected with 0.1 μg/kg of the short peptide P10581; the group B was injected with 5 mg/kg of the morphine; and the group C was injected with 0.1 μg/kg of the short peptide P10581, and then with 5 mg/kg of the morphine 30 min later. 1 h later, the PWT of each group was recorded.
(2) Each group was injected with the drug in the afternoon on the 6th day after the modeling, and from the 7th day to the 12th day, the drug administration was performed at 9:00 a.m. and 5:30 p.m. (5 mg/kg of morphine twice a day; and 0.1 μg/kg of the short peptide P10581 was administered 30 min before the morphine injection). The PWT of rats in each group before and after administration in the morning was measured every other day.
(1) 30 healthy adult SD rats, weighing 180-220 g, were selected to build a CCI-induced neuropathic pain model. Those successfully-established models were randomly divided into 6 groups on the 6th day, where the groups A was injected with normal saline; and the groups B-F were injected with 0.01 μg/kg, 0.025 μg/kg, 0.1 μg/kg, 0.2 μg/kg and 0.4 μg/kg of the short peptide P10581, respectively. 30 min later, the groups A-F were further injected with 5 mg/kg of the morphine, and 1 h later, the PWT of each group was recorded.
(2) Each group was injected with the drug in the afternoon on the 6th day after modeling, and from the 7th day to the 10th day, the drug administration was performed at 9:00 a.m. and 5:30 p.m. (injected twice a day consecutively for 5 days), and the PWT of each group before and after the administration in the morning was measured every other day.
In the FIG. 10B, ΔPWT (drug) and ΔPWT (Baseline) were calculated as follows: ΔPWT(drug)=PWT(post-drug)−PWT(pre-drug); and ΔPWT(Baseline)=PWT(before CCI)−PWT(after CCI).
The intensity of the relieving effect on the tolerance was represented by ΔPWT (drug)/ΔPWT (Baseline), where the ΔPWT (drug) indicated a difference between pain thresholds before and after Mor+P10581 injection in the morning.

[2] = test system: morphine analgesic tolerance, neuropathic pain rat model
Description: (1) 18 healthy adult SD rats, weighing 180-220 g, were selected to build a CCI-induced neuropathic pain model. On the 7th day after modeling, those successfully-established models were randomly divided into 3 groups, where the group A was injected with normal saline; the group B was injected with morphine (15 μg, 10 μL); and the group C was injected with 0.2 μg/kg of the short peptide P10581, and then injected with morphine (15 μg, 10 μL) 30 min later. 1 h later, the PWT of each group was recorded.
(2) Each group was injected with the drug respectively at 9:00 a.m. and 5:30 p.m. from 7th day to 11th day after modeling, and the PWT of each group was measured before and after the administration in the morning every day.

[3] = test system: bone cancer pain (BCP) rat model; test: Analgesic effect on mechanical hyperalgesia (PWT) in BCP rat model; conditions: for analgesic effect on BCP, low dose: repeated
Description: The tumor cell implantation (TCI) surgery was performed according to the method proposed by Medhurst S J, et al (Medhurst S. J., Walker K., Bowes M., Kidd B. L., Glatt M., Muller M., et al. (2002). A rat model of bone cancer pain. Pain 96 129-140). Walker 256 mammary gland carcinoma cells were transferred from a liquid nitrogen tank, thawed quickly in a 37° C. water bath and loaded into a centrifugal tube. Then the cells were added with an appropriate amount of normal saline and centrifuged at 1200 r/min for 6 min. The supernatant was discarded, and the cells were washed again, and suspended with phosphate buffered saline (PBS) to 1×10^7/mL. Young female SD rats, weighing 90-100 g, were intraperitoneally injected with 0.5 mL of mammary gland carcinoma cells, and a large amount of ascites occurred after 6-7 days of the injection. 10 mL of ascites was extracted and centrifuged for 5 min. The precipitate was washed with normal saline and then diluted with PBS to 1×10^5/mL. The rats were anesthetized with 10% chloral hydrate and shaved, and a 1-cm incision was made in the upper half skin of the right tibia to expose the bone surface with a minimal damage to the surrounding muscle or blood vessels. The bone was pierced with a 4 # needle at 5 mm below a knee joint distal to an epiphysial growth plate, and the needle was inserted to a depth so that it can be pushed into the medullary cavity. The needle was then removed, and a 10 […] needle containing cells to be injected was inserted into the medullary cavity, determining whether the needle was located in the medullary cavity by withdrawal. 5 mL (1×10^5/mL) of cancer cells were injected into the medullary cavity, and whether there are cells or blood leaking out from the injection site was observer.
The needle was kept in the medullary cavity for 1 min and then was withdrawn to enable the full cell spreading, and the injection site was pressed by a cotton swab for 1 min and closed with bone cement. The wound was sutured and treated with penicillin powder. The PWT was measured 3 days after modeling, where those rat models with a significant lower PWT were considered as successful BCP rat models, and the undesirable models were removed.
(S1) Healthy adult SD rats, weighing 180-220 g, were selected, numbered on tails and transferred to the same cage (15 rats in total).
(S2) The rats were maintained in the measuring room for 2 h for adaptation.
The measurement was repeated 3-5 times for each rat with an interval of 5-10 min, and the results were averaged. The rats were allowed to rest for several hours to build a BCP model.
Those unsuccessful models were removed, and on the 22nd day after modeling, the successfully-established models were randomly divided into 3 groups, where the groups A-C were subcutaneously with normal saline, […], respectively. 1.5 h later, the PWT of the right hind paw of each group was measured. Each rat was measured 3-5 times with an interval of 5-10 min, and the PWTs were averaged as the practical PWT (unit: g). The drug administration was performed twice a day (at 9:30 a.m. and 4:30 p.m.) for consecutive 4 days, and the PWT of each group before and after administration was measured in the morning every day. […]

[4] = 14.4 μg/kg, twice a day, 4 days

Compound	analgesic effect of morphine alone ([1]; rat, in vivo)	analgesic effect of morphine on neuropathic pain ([2]; rat, in vivo)	analgesic effect / tolerance after repeated injection ([3]; rat, in vivo)	analgesic effect on BCP ([3]; rat, in vivo)	effect on morphine analgesic tolerance ([1]; 0.1 μg/kg peptide 30 min before 5 mg/kg morphine, twice a day)	restoration of analgesic effect of morphine ([1]; 0.1 μg/kg peptide + 5 mg/kg morphine, 5th day)	analgesic effect of morphine restored, ΔPWT (drug)/ΔPWT (Baseline) ([1]; 0.2 μg/kg peptide, after 3-day consecutive injection of morphine) [%]	analgesic effect of morphine restored ([1]; 0.2 μg/kg peptide)	effect on morphine analgesic tolerance ([1]; 0.4 μg/kg peptide + 5 mg/kg morphine (FIGS. 10A, 10B))	effect on morphine analgesic tolerance ([1]; 0.4 μg/kg peptide, after 3-day consecutive injection of morphine)	analgesic effect of morphine restored ([1]; 0.4 μg/kg peptide)	dose at which morphine analgesic tolerance is effectively relieved ([1]; neuropathic pain, rats) [µg/kg]	effect on morphine analgesic tolerance ([2]; 0.2 μg/kg peptide intrathecal 30 min before morphine 15 μg)	analgesic effect on BCP, low dose ([3]; 0.2 μg/kg S.C.)	analgesic effect on BCP, low dose ([3]; 0.4 μg/kg S.C.)	analgesic effect on BCP [3, 4]	analgesic tolerance after repeated injection [3, 4]
CN1CC[C@]23c4c5ccc(O)c4O[C@H]2[C@@H](O)C=C[C@H]3[C@H]1C5 [morphine, reference compound]	almost completely disappeared	completely disappeared	disappeared at day 4; also recorded: completely lost the analgesic effect on BCP	significantly alleviated													
WKCNPNDDKCCRPKLKC [P10581]					partially relieved the morphine analgesic tolerance	restored by half	90.1	higher than 60%	completely reversed	completely reverse the morphine analgesic tolerance	higher than 85%	≥ 0.01	completely eliminated	no analgesic effect	no analgesic effect on BCP	significantly alleviate the BCP	without developing the analgesic tolerance
